{"source": "patent US10196417B2", "about": "“Baicalin magnesium compound and its preparation method and application” (CHENGDE MEDICAL UNIVERSITY, priority 2016, dated 2019)", "key": {"[1]": {"test_system": "mice with cerebral ischemia", "assay": "Learning and memory function in mice with cerebral ischemia (water maze test)", "assay_type": "in vivo", "details": "i.p. 12.5 mg/kg baicalin or equivalent for 12 days after carotid clipping 20 min", "description": "80 healthy mice were randomly divided into 4 groups each having 20 mice, a model group, a sham-operation group, a baicalin group and a baicalin magnesium group. For the model group, mice were intraperitoneally injected with 1% of pentobarbital sodium for anesthesia, and then the left and right common carotid arteries were exposed and separated. The left and right arteries were immediately clipped with a vessel clamp for 20 minutes. The vessel clamp then were released; arteries were sutured; and the mice were put back in the cage for breeding. For the sham-operation group, the left and right common carotid arteries were exposed by the same method as above but without clipping. The left and right arteries were sutured, and the mice were put back in the cage for breeding. For the baicalin group, the operation was the same as that for the model group, and on the second day after the operation the mice were intraperitoneally injected with 12.5 mg/kg of baicalin for successive 12 days. For the baicalin magnesium group, the operation was the same as that for the model group, and on the second day after the operation the mice were intraperitoneally injected with baicalin magnesium (at a dose equivalent to 12.5 mg/kg of baicalin) for successive 12 days. The mice in the sham-operation group and the model group were administrated with the same volume of normal saline. Water Maze Test: a circular water tank for test was 120 cm in diameter and 60 cm in height; a cylindrical platform was 10 cm in diameter and 40 cm in height; and an interior of the circular water tank was black. A camera connected to a display was provided to record the movement of mice. During the test, the water depth was 12 cm, and the water temperature was (25±2) ° C. All space signs around the maze remained unchanged throughout the test. Water Maze Test for Memory: on the day before the beginning of the test, each of mice were familiar with the water environment in the maze for 2 minutes. The mice were randomly placed in water close to walls of maze from four different quadrants (North, West, South and East, in one period of time), and the time from the mice entering water to climbing on the platform was recorded as an escape latency. […] The mice were continuously trained for 15 days at a frequency of two times of training per day. Each group of animals was subjected to a water maze test in turn. The path on the first day had two blind ends; the path on the second day had three blind ends; and the path on the third day, the fourth day and the fifth day had four blind ends. The mice were placed in water toward the walls, and the time from the mice entering water to arriving at the platform (latency) and the number of entering the blind ends were recorded. […]"}, "[2]": {"test_system": "Human liver cancer HepG2 cells", "assay": "Anti-tumor activity: apoptosis of HepG2 cells by flow cytometry", "assay_type": "cell-based", "details": "48 hours", "description": "Human liver cancer HepG2 cells were prepared and then cultured in an incubator containing 5% of CO2 at 37° C. using a DMEN culture medium containing 10% of fetal bovine serum, penicillin (100 μmol·L^−1) and streptomycin (1 mg·mL^−1). HepG2 cells in logarithmic phase were diluted with RPMI-1640 culture medium containing 10% of fetal bovine serum to a concentration of 1×10^4 per mL; then inoculated into a 96-well plate at 100 μL per well; and then cultured in an incubator having a relative humidity of 90% and 5% of CO2 at 37° C. The culture medium was discarded after the HepG2 cells were cultured for 24 hours. The culture medium containing baicalin and baicalin magnesium (equivalent to the concentration of baicalin (5 μg/mL, 10 μg/mL and 20 μg/mL)) were added in wells respectively with each concentration in four parallel wells. And at the same time, wells having culture medium without cells were used as a blank control group, and wells having cells without drug were used as a negative control group. The groups were continuously cultured for 48 hours to collect the cells. The cells were washed with PBS solution 2 times, and detected with a flow cytometer by FACS for parameter acquisition and data analysis."}, "[3]": {"test_system": "acetic acid-induced pain in mice", "assay": "Analgesia: acetic acid-induced writhing", "assay_type": "in vivo", "details": "0.067 g/kg (baicalin equivalent) intragastric once per day 7 days; for Analgesia %: vs blank control; for Number of writhing: writhing within 15 minutes after 0.6% acetic acid i.p.", "description": "40 mice, 20-22 g in weight, were randomly divided into 4 groups each having 10 mice, a baicalin (0.067 g/kg) group, a baicalin magnesium (equivalent to 0.067 g/kg of baicalin) group, a blank control group (administrated with normal saline), and an aspirin positive control group (0.15 g/kg). The mice were intragastrically administrated once per day for successive 7 days. After 30 minutes of final administration, the mice were intraperitoneally injected with 0.6% acetic acid saline solution at a dose of 0.2 mL/10 g; the number of writhing responses in the mice within 15 minutes was counted. Analgesia % was calculated as follows: Analgesia %=[(average number of writhing responses of the blank control group−average number of writhing responses of the drug administration group)/average number of writhing responses of the blank control group]×100%. Single-factor variance analysis was performed on data by the SPSS19.0 statistical software, and P<0.05 was of statistical significance."}, "[4]": {"test_system": "yeast-induced febrile rats", "assay": "Antipyretic effect in yeast-induced febrile rats", "assay_type": "in vivo, SD male rats", "details": "for ΔT comparing the baicalin magnesium with the baicalin: difference between groups; for Body temperature change ΔT: intragastric 80 mg/kg baicalin or equivalent", "description": "SD male rats were randomly divided into 4 groups, a control group, a model group, a baicalin group and a baicalin magnesium group. Rats were raised in a normal day/night cycle and at room temperature (22±2° C.) and a relative humidity of (50±2)%. Three days before the test, rats were placed in the experimental environment to adapt to the experimental conditions. Rats having a basal body temperature of 37.5-39.0° C. were selected for test The rats were fasted for 12 hours before the test, and the body temperature of rats was measured once every 1 hour when tested. Average of three body temperature values (the temperature values would be removed if a difference between the highest value and the lowest value was greater than 0.5° C.) of rats was used as the basal body temperature.\nThe rats were intragastrically administrated with baicalin or baicalin magnesium, and then immediately subcutaneously injected with 20% of dried yeast saline suspension (not for the control group). The administration mode was as follows: rats in the control group were intragastrically administrated with 2 ml/kg of normal saline and subcutaneously injected with 10 ml/kg of normal saline; rats in the model group were ntragastrically administrated 2 ml/kg of normal saline and subcutaneously injected with 2 g/kg of yeast; rats in the baicalin group were intragastrically administrated with 80 mg/kg of baicalin and subcutaneously injected with 2 g/kg of yeast; and rats in the baicalin magnesium group were intragastrically administrated with baicalin magnesium (equivalent to 80 mg/kg of baicalin) and subcutaneously injected with 2 g/kg of yeast. The body temperature of the rats was measured once every 2 hours for 14 hours to observe the temperature change of rats (ΔT, ° C.) at different time after injection of the yeast."}, "[5]": {"details": "HepG2, 5 μg/mL (baicalin equivalent)"}, "[6]": {"details": "HepG2, 10 μg/mL (baicalin equivalent)"}, "[7]": {"details": "HepG2, 20 μg/mL (baicalin equivalent)"}}, "note": "Marks after values point to notes of the source that are not given here.", "data": [{"smiles": "O=C(O)C1O[C@@H](Oc2cc3oc(-c4ccccc4)cc(=O)c3c(O)c2O)C(O)[C@@H](O)[C@@H]1O", "note": "(some centres unmarked) [Baicalin Magnesium, baicalin magnesium]", "values": [{"measurement": "Escape Latency", "setting": "[1]", "result": "26.54 ± 8.34*^Δ s"}, {"measurement": "Number of Errors", "setting": "[1]", "result": "3.82 ± 2.12*^Δ"}, {"measurement": "Apoptosis %", "setting": "[2]; [5]", "result": "11.67 ± 0.65", "unit": "%"}, {"measurement": "Apoptosis %", "setting": "[2]; [6]", "result": "23.67 ± 5.21", "unit": "%"}, {"measurement": "Apoptosis %", "setting": "[2]; [7]", "result": "33.12 ± 1.58*^Δ %"}, {"measurement": "Analgesia %", "setting": "[3]", "result": "60.6*^Δ %"}, {"measurement": "Number of writhing", "setting": "[3]", "result": "10.43 ± 3.56*^Δ"}, {"measurement": "ΔT comparing the baicalin magnesium with the baicalin", "setting": "[4]; 6 h", "result": 0.2, "unit": "°C"}, {"measurement": "Body temperature change ΔT", "setting": "[4]; 6 h after yeast 2 g/kg s.c.", "result": 0.2, "unit": "°C"}, {"measurement": "ΔT comparing the baicalin magnesium with the baicalin", "setting": "[4]; 8 h", "result": 0.5, "unit": "°C"}, {"measurement": "Body temperature change ΔT", "setting": "[4]; 8 h after yeast 2 g/kg s.c.", "result": 0.3, "unit": "°C"}]}, {"smiles": "O=C(O)[C@H]1O[C@@H](Oc2cc3oc(-c4ccccc4)cc(=O)c3c(O)c2O)[C@H](O)[C@@H](O)[C@@H]1O", "note": "[Baicalin]", "values": [{"measurement": "Escape Latency", "setting": "[1]", "result": "38.88 ± 11.99", "unit": "s"}, {"measurement": "Number of Errors", "setting": "[1]", "result": "4.56 ± 3.78"}, {"measurement": "Apoptosis %", "setting": "[2]; [5]", "result": "9.57 ± 0.56", "unit": "%"}, {"measurement": "Apoptosis %", "setting": "[2]; [6]", "result": "21.45 ± 1.67", "unit": "%"}, {"measurement": "Apoptosis %", "setting": "[2]; [7]", "result": "30.67 ± 3.45", "unit": "%"}, {"measurement": "Analgesia %", "setting": "[3]", "result": "33.7* %"}, {"measurement": "Number of writhing", "setting": "[3]", "result": "17.54 ± 4.44"}, {"measurement": "Body temperature change ΔT", "setting": "[4]; 6 h after yeast 2 g/kg s.c.", "result": 0.4, "unit": "°C"}, {"measurement": "Body temperature change ΔT", "setting": "[4]; 8 h after yeast 2 g/kg s.c.", "result": 0.8, "unit": "°C"}]}]}
